Data as given in ChEMBL document CHEMBL2177009, “The use of novel C-methylated spermidine derivatives to investigate the regulation of polyamine metabolism” (J Med Chem, 2011).

Tests used:
DU-145 [1] = assay: Metabolic stability in N1,N11-diethyl-norspermine pretreated human DU145 cells expressing SSAT assessed as accumulation of acetylated derivatives of compound in medium at 100 uM after 48 hrs; format: ADME, cell-based; conditions: du-145, 48 h
DU-145 [2] = assay: Effect on intracellular level of decarboxylated S-adenosyl-L-methionine in human DU145 cells assessed per million cells at 100 uM after 72 hrs in presence of serum amine oxidase inhibitor aminoguanidine and ODC inhibitor DFMO (RVb = 263 +/- 14 pmol/10^6 cells); format: functional
DU-145 [3] = assay: Effect on intracellular level of S-adenosyl-Lmethionine in human DU145 cells assessed per million cells at 100 uM after 72 hrs in presence of serum amine oxidase inhibitor aminoguanidine and ODC inhibitor DFMO (RVb = 80 +/- 5 pmol/10^6 cells); format: functional
DU-145 [4] = assay: Metabolic stability in human DU145 cells assessed as intracellular spermidine level per ug DNA at 100 uM after 72 hrs in presence of serum amine oxidases inhibitor aminoguanidine (reference value: 137 +/- 3 pmol/ug DNA); format: ADME, cell-based; conditions: du-145, 72 h
DU-145 [5] = assay: Metabolic stability of the compound in human DU145 cells assessed as metabolites-mediated cell toxicity at 10 uM after 48 hrs by MTT assay in presence of bovine serum amine oxidase; format: ADME, cell-based; conditions: du-145, 48 h
DU-145 [6] = assay: Metabolic stability in human DU145 cells assessed as intracellular spermine level per ug DNA at 100 uM after 24 hrs in presence of serum amine oxidases inhibitor aminoguanidine (reference value: 122 +/- 11 pmol/ug DNA); format: ADME, cell-based; conditions: du-145, 24 h
DU-145 [7] = assay: Metabolic stability in human DU145 cells assessed as intracellular methylspermine level per ug DNA at 100 uM after 72 hrs in presence of serum amine oxidases inhibitor aminoguanidine; format: ADME, cell-based; conditions: du-145, 72 h
DU-145 [8] = assay: Metabolic stability in human DU145 cells assessed as intracellular compound level per ug DNA at 100 uM after 48 hrs in presence of serum amine oxidases inhibitor aminoguanidine; format: ADME, cell-based; conditions: du-145, 48 h
DU-145 [9] = assay: Metabolic stability in human DU145 cells assessed as intracellular compound/methylspermine level per ug DNA at 100 uM after 24 hrs in presence of serum amine oxidases inhibitor aminoguanidine; format: ADME, cell-based; conditions: du-145, 24 h
DU-145 [10] = assay: Metabolic stability in human DU145 cells assessed as intracellular spermidine level per ug DNA at 100 uM after 24 hrs in presence of serum amine oxidases inhibitor aminoguanidine (reference value: 154 +/- 7 pmol/ug DNA); format: ADME, cell-based; conditions: du-145, 24 h
DU-145 [11] = assay: Metabolic stability in human DU145 cells assessed as intracellular methylspermine level per ug DNA at 100 uM after 48 hrs in presence of serum amine oxidases inhibitor aminoguanidine; format: ADME, cell-based; conditions: du-145, 48 h
DU-145 [12] = assay: Metabolic stability in human DU145 cells assessed as intracellular compound level per ug DNA at 100 uM after 72 hrs in presence of serum amine oxidases inhibitor aminoguanidine; format: ADME, cell-based; conditions: du-145, 72 h
DU-145 [13] = assay: Metabolic stability in human DU145 cells assessed as intracellular spermine level per ug DNA at 100 uM after 48 hrs in presence of serum amine oxidases inhibitor aminoguanidine (reference value: 133 +/- 4 pmol/ug DNA); format: ADME, cell-based; conditions: du-145, 48 h
DU-145 [14] = assay: Metabolic stability in human DU145 cells assessed as intracellular compound/methylspermine level per ug DNA at 100 uM after 72 hrs in presence of serum amine oxidases inhibitor aminoguanidine; format: ADME, cell-based; conditions: du-145, 72 h
[15] = Cytotoxicity against human DU145 cells assessed as cell growth at 100 uM after 72 hrs in presence of serum amine oxidase inhibitor aminoguanidine (RVb = 49 +/- 2 pmol/10^6 cells); format: cell-based, DU-145; conditions: read-out: Activity
DU-145 [16] = assay: Metabolic stability in human DU145 cells assessed as intracellular compound level per ug DNA at 100 uM after 24 hrs in presence of serum amine oxidases inhibitor aminoguanidine; format: ADME, cell-based; conditions: du-145, 24 h
DU-145 [17] = assay: Metabolic stability in human DU145 cells assessed as intracellular spermidine level per ug DNA at 100 uM after 48 hrs in presence of serum amine oxidases inhibitor aminoguanidine (reference value: 137 +/- 5 pmol/ug DNA); format: ADME, cell-based; conditions: du-145, 48 h
DU-145 [18] = assay: Metabolic stability in human DU145 cells assessed as intracellular spermine level per ug DNA at 100 uM after 72 hrs in presence of serum amine oxidases inhibitor aminoguanidine (reference value: 154 +/- 7 pmol/ug DNA); format: ADME, cell-based; conditions: du-145, 72 h
DU-145 [19] = assay: Metabolic stability in human DU145 cells assessed as intracellular compound/methylspermine level per ug DNA at 100 uM after 48 hrs in presence of serum amine oxidases inhibitor aminoguanidine; format: ADME, cell-based; conditions: du-145, 48 h
[20] = biological target: T1, Peroxisomal N(1)-acetyl-spermine/spermidine oxidase (Homo sapiens, UniProt Q6QHF9); assay: Metabolic stability of the compound assessed as human recombinant APAO-mediated compound degradation at 0.5 to 1 mM after 5 to 60 mins in presence of benzaldehyde; format: ADME; conditions: 1000 µM
T1 sequence (Q6QHF9 whole entry): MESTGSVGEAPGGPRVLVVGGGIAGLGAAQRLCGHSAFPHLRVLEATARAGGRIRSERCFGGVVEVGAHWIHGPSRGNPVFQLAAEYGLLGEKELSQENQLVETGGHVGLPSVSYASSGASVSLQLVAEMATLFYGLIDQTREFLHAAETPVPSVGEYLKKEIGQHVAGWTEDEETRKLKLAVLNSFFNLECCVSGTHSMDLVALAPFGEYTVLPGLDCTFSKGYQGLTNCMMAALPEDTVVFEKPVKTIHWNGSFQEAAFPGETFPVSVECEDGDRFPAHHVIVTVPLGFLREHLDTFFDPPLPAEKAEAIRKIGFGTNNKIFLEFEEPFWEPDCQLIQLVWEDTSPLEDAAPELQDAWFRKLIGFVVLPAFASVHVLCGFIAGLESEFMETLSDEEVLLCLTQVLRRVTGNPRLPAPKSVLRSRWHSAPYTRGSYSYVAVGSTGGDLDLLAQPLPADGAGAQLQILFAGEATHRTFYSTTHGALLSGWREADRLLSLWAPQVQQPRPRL

DU-145 [21] = assay: Metabolic stability in human DU145 cells assessed as intracellular methylspermine level per ug DNA at 100 uM after 24 hrs in presence of serum amine oxidases inhibitor aminoguanidine; format: ADME, cell-based; conditions: du-145, 24 h
[22] = biological target: T1, Peroxisomal N(1)-acetyl-spermine/spermidine oxidase; assay: Metabolic stability of the compound assessed as human recombinant APAO-mediated compound degradation at 0.5 to 1 mM after 5 to 60 mins; format: ADME; conditions: 1000 µM
DU-145 [23] = assay: Metabolic stability in human DU145 cells assessed as intracellular putrescine level per ug DNA at 100 uM after 48 hrs in presence of serum amine oxidases inhibitor aminoguanidine (reference value: 7 +/- 1 pmol/ug DNA); format: ADME, cell-based; conditions: du-145, 48 h
DU-145 [24] = assay: Metabolic stability in human DU145 cells assessed as intracellular putrescine level per ug DNA at 100 uM after 72 hrs in presence of serum amine oxidases inhibitor aminoguanidine (reference value: 6 pmol/ug DNA); format: ADME, cell-based; conditions: du-145, 72 h
DU-145 [25] = assay: Metabolic stability in N1,N11-diethyl-norspermine pretreated human DU145 cells expressing SSAT assessed as intracellular accumulation of acetylated derivatives of compound at 100 uM after 48 hrs; format: ADME, cell-based; conditions: du-145, 48 h
DU-145 [26] = assay: Metabolic stability in human DU145 cells assessed as intracellular putrescine level per ug DNA at 100 uM after 24 hrs in presence of serum amine oxidases inhibitor aminoguanidine (reference value: 11 +/- 2 pmol/ug DNA); format: ADME, cell-based; conditions: du-145, 24 h
DU-145 [27] = assay: Metabolic stability in human DU145 cells assessed as intracellular Ac-8-Methylspermidine level per ug DNA at 100 uM after 72 hrs in presence of serum amine oxidases inhibitor aminoguanidine; format: ADME, cell-based; conditions: du-145, 72 h
DU-145 [28] = assay: Metabolic stability in human DU145 cells assessed as intracellular Ac-8-Methylspermidine level per ug DNA at 100 uM after 48 hrs in presence of serum amine oxidases inhibitor aminoguanidine; format: ADME, cell-based; conditions: du-145, 48 h
DU-145 [29] = assay: Metabolic stability in human DU145 cells assessed as intracellular Ac-8-Methylspermidine level per ug DNA at 100 uM after 24 hrs in presence of serum amine oxidases inhibitor aminoguanidine; format: ADME, cell-based; conditions: du-145, 24 h
DU-145 [30] = assay: Metabolic stability in human DU145 cells expressing SSAT assessed as accumulation of acetylated derivatives of compound in medium at 100 uM after 48 hrs; format: ADME, cell-based; conditions: du-145, 48 h
DU-145 [31] = assay: Metabolic stability of the compound in human DU145 cells assessed as compound metabolite-mediated cell toxicity at 100 uM after 48 hrs by MTT assay in presence of bovine serum amine oxidase; format: ADME, cell-based; conditions: du-145, 48 h

Structure (SMILES)	Stability (DU-145 [1])	Drug metabolism (DU-145 [4]) [pmol]	Drug metabolism (DU-145 [6]) [pmol]	Drug metabolism (DU-145 [7]) [pmol]	Drug metabolism (DU-145 [8]) [pmol]	Drug metabolism (DU-145 [9]) [pmol]	Drug metabolism (DU-145 [10]) [pmol/ug DNA]	Drug metabolism (DU-145 [11]) [pmol]	Drug metabolism (DU-145 [12]) [pmol]	Drug metabolism (DU-145 [13]) [pmol]	Drug metabolism (DU-145 [14]) [pmol]	Drug metabolism (DU-145 [16]) [pmol]	Drug metabolism (DU-145 [17]) [pmol/ug DNA]	Drug metabolism (DU-145 [18]) [pmol]	Drug metabolism (DU-145 [19]) [pmol]	Stability [20]	Activity (DU-145 [2]) [pmol]	Activity (DU-145 [3]) [pmol]	Stability (DU-145 [5])	viability at 72 h, 100 µM [15] [%]	also measured
CC(=O)NCCCNCCCCN	Unstable																				
CC(N)CCCNCCCN (stereo not given)	Unstable	20	83	43	287	257	30	39	332	57	375	257	18	70	326	Unstable	60	138	Stable	93	Drug metabolism (DU-145 [27]): 4 pmol; Drug metabolism (DU-145 [28]): 7 pmol; Drug metabolism (DU-145 [29]): 15 pmol; Stability (DU-145 [25]): Unstable; Stability (DU-145 [30]): Unstable; Stability (DU-145 [31]): Unstable
NCCCCNCCCN [SPERMIDINE]	Unstable															Unstable	<5	126	Stable	89	Stability (DU-145 [31]): Unstable

Continued, in another order:

Stability (DU-145 [1])	Drug metabolism (DU-145 [4]) [pmol]	Drug metabolism (DU-145 [6]) [pmol]	Drug metabolism (DU-145 [7]) [pmol]	Drug metabolism (DU-145 [8]) [pmol]	Drug metabolism (DU-145 [9]) [pmol]	Drug metabolism (DU-145 [10]) [pmol/ug DNA]	Drug metabolism (DU-145 [11]) [pmol]	Drug metabolism (DU-145 [12]) [pmol]	Drug metabolism (DU-145 [13]) [pmol]	Drug metabolism (DU-145 [14]) [pmol]	Drug metabolism (DU-145 [16]) [pmol]	Drug metabolism (DU-145 [17]) [pmol/ug DNA]	Drug metabolism (DU-145 [18]) [pmol]	Drug metabolism (DU-145 [19]) [pmol]	Stability [20]	Structure (SMILES)	Activity (DU-145 [2]) [pmol]	Activity (DU-145 [3]) [pmol]	Stability (DU-145 [5])	viability at 72 h, 100 µM [15] [%]	also measured
Unstable	16	62	60	239	301	15	44	311	55	371	264	11	74	283	Unstable	C[C@H](N)CCNCCCCN	49	177	Stable	84	Drug metabolism (DU-145 [21]): 37 pmol
Unstable	38	67	80	135	200	39	77	134	72	214	133	38	75	202	Unstable	CC(CN)CNCCCCN.Cl (stereo not given)	<5	148	Stable	86	Stability [22]: Unstable; Drug metabolism (DU-145 [23]): < 5 pmol; Drug metabolism (DU-145 [24]): < 5 pmol; Stability (DU-145 [25]): Unstable; Drug metabolism (DU-145 [26]): < 5 pmol; Drug metabolism (DU-145 [21]): 67 pmol
Unstable	22	92		168	181	23		176	103	176	181	18	115	168	Stable	CC(CCN)NCCCCN.Cl (stereo not given)	109	149	Stable	91	Drug metabolism (DU-145 [26]): < 5 pmol
